According to EP3035931B1, “COMPOSITION FOR REDUCING NERVOUS SYSTEM INJURY AND METHOD OF MAKING AND USE THEREOF” (Morehouse School of Medicine, priority 2013, dated 2015):
Where two headings read alike, the source gives them in different places.

Columns and labels:
[1] = test system: COS-7 cells stably transfected with ASIC1a; assay: Acid-induced LDH release in ASIC1a-transfected COS-7 cells; conditions: 100 µM; 1 hr pH 6.0, LDH 24 hr after acid incubation
cortical neurons [2] = format: cell-based, mouse
Protocol: (§1) Background absorbance at 620 was subtracted.
Acid-induced injury was studied on neurons grown on 24-well plates incubated in either pH 7.4 or 6.0 ECF containing MK801, CNQX, and nimodipine; see FIG. 8. Cell injury was assayed by the measurement of lactate dehydrogenase (LDH) release (Koh and Choi, J. Neurosci., 1987, 20:83-90) at various time points (FIGS. 8A and 8B) and by fluorescent staining of alive/dead cells. Compared to neurons treated at pH 7.4, 1 hr acid incubation (pH 6.0) induced a time-dependent increase in LDH release (FIG. 8A). After 24 hr, 45.7% ± 5.4% of maximal LDH release was induced (n=25 wells). Continuous treatment at pH 6.0 induced greater cell injury (FIG. 8B, n=20).

ASIC2a = target: T1, ASIC2a (Homo sapiens, UniProt Q16515); assay: Blockade of ASIC 2a current expressed in CHO cells; format: cell-based; conditions: CHO cells, FIG. 17
T1 construct: expressed in transfected cells; host or cells: CHO
T1 sequence (Q16515 1-512): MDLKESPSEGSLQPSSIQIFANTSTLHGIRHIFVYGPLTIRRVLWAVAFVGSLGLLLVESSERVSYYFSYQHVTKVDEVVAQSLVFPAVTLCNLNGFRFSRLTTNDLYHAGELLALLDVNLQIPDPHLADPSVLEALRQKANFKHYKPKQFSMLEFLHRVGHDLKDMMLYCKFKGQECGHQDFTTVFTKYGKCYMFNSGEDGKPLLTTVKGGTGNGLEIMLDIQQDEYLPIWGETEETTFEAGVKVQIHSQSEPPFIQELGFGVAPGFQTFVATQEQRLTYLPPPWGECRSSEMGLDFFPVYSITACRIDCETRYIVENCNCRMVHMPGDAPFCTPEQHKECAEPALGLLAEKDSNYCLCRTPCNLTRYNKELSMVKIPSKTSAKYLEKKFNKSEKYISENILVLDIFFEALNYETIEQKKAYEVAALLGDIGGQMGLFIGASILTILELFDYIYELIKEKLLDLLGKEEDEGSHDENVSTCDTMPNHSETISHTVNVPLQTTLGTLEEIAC

cortical neurons [3] = assay: Fura-2 Ca^2+ imaging of acid-induced increase of [Ca^2+]i in cortical neurons; format: cell-based, mouse; conditions: pH drop to 6.0; blockers of glutamate receptors and voltage-gated Ca^2+ channels present; n=6-8
TRPM7 channels = TRPM7 channels (Homo sapiens, UniProt Q96QT4); assay: Conductance of TRPM7 channels; format: cell-based
Chain of TRPM7 channels (Q96QT4 whole entry): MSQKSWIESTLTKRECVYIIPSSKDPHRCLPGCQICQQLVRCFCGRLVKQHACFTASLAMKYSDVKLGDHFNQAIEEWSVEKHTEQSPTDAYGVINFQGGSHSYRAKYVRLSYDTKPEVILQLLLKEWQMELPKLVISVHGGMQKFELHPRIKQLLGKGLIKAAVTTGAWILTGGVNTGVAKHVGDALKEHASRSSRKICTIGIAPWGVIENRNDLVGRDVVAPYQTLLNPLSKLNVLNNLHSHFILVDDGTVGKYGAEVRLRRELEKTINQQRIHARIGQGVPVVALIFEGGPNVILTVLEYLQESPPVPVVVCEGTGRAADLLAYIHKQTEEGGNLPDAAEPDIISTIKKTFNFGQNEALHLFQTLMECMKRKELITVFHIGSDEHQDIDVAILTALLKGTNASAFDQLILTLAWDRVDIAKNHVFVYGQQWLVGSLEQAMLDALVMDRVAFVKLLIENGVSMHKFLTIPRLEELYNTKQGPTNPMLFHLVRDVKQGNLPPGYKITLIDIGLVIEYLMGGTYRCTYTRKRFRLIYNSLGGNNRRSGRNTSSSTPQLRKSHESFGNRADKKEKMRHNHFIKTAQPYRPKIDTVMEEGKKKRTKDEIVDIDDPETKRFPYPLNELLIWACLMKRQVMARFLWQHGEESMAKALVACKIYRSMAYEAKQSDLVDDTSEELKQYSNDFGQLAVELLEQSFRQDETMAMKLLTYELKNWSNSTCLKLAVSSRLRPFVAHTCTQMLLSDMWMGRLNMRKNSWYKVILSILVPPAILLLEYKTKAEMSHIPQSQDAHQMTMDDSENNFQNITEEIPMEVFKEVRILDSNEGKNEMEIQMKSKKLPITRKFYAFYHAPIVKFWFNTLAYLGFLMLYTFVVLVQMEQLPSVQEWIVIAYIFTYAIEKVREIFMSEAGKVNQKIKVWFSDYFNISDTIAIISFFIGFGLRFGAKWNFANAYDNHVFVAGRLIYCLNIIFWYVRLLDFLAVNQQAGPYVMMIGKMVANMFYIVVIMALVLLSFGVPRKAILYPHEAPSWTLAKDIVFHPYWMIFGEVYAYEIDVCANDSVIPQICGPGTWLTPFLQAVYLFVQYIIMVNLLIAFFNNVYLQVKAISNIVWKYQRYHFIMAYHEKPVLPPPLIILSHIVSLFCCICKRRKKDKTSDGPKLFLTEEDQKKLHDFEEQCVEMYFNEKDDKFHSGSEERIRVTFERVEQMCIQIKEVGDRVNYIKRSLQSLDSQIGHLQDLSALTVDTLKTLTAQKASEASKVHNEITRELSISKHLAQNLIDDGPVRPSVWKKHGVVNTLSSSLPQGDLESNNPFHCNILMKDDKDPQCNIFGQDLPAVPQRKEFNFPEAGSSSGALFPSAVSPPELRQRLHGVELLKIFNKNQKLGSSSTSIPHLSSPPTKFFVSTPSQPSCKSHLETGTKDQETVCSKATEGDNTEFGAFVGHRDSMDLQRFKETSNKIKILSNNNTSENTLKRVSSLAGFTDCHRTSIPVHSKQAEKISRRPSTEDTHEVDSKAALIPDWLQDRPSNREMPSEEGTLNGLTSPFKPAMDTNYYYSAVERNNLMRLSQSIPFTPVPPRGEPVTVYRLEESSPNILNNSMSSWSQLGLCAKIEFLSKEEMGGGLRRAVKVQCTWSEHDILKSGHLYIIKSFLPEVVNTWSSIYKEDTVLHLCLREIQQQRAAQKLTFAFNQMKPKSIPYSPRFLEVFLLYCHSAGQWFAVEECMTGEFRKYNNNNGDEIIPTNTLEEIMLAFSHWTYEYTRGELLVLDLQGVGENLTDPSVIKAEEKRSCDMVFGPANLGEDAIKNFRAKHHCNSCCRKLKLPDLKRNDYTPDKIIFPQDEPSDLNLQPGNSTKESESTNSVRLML

[4] = Mouse 60 min MCAO, intravenous injection, infarct volume; format: in vivo; conditions: mice, intravenous injection 1, 3 or 5 hours after MCAO, FIG. 19
[5] = Efficacious plasma and brain concentration in mice; format: in vivo
Source text: It is thus estimated that only a 10-fold increase in potency is necessary to achieve efficacious concentrations that are suitable for an acute therapeutic for stroke in humans. […]

Na^+/Ca^2+ ion exchanger = conditions: cited from earlier work
ASIC1^-/- neurons = format: cell-based, mouse; conditions: ASIC1^-/- neurons; n=8 each
Protocol: Following anesthesia with halothane, cerebral cortices were dissected from E16 Swiss mice or P1 ASIC1+/+ and ASIC1-/- mice and incubated with 0.05% trypsin-EDTA for 10 min at 37° C. Tissues were then triturated with fire-polished glass pipettes and plated on poly-L-ornithine-coated 24-well plates or 25x25 mm glass coverslips at a density of 2.5x10^5 cells per well or 10^6 cells per coverslip. Neurons were cultured with MEM supplemented with 10% horse serum (for E16 cultures) or Neurobasal medium supplemented with B27 (for PI cultures) and used for electrophysiology and toxicity studies after 12 days. Glial growth was suppressed by addition of 5-fluoro-2-deoxyuridine and uridine, yielding cultured cells with 90% neurons as determined by NeuN and GFAP staining (data not shown).
as §1
. […] . In contrast to acid incubation, 1 hr treatment of ASIC1^-/- neurons with 1 mM NMDA+10 µM glycine (in Mg^2+-free [pH 7.4] ECF) induced 84.8% ± 1.4% of maximal LDH release at 24 hr (n=4, FIG. 9C), indicating normal response to other cell injury processes.

[6] = format: in vivo, rats; conditions: n=11
ASICs = target: T2, ASICs (Mus musculus, UniProt Q6NXK8); format: cell-based; conditions: 100 µM amiloride; pH 6.0; n=6
T2 construct: endogenous in cells; host or cells: primary cortical neurons from E16 Swiss mice
T2 sequence (Q6NXK8 1-526): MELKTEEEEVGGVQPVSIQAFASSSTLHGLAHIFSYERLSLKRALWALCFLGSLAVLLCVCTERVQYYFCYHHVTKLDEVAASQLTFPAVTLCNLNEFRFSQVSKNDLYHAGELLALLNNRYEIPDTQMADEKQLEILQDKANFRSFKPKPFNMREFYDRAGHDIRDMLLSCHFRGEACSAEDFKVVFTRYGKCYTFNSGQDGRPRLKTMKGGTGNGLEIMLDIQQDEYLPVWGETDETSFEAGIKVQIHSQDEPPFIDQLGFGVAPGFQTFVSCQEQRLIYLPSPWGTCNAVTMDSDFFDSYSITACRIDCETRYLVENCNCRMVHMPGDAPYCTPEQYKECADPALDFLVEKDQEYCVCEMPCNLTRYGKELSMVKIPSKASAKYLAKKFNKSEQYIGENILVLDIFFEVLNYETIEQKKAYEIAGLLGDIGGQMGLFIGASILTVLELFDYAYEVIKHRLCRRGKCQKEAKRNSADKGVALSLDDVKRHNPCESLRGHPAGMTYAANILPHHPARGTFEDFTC

[7] = Mouse 60 min MCAO, intracerebroventricular injection one hour after MCAO, infarct volume; conditions: mice, evaluated one day after ischemia induction, FIG. 18

SMILES: N=C(N)NC(=O)c1nc(Cl)c(N)nc1N [amiloride]
- acid-induced LDH release [1]: inhibited
- LDH release at 24 hr (cortical neurons [2]; 100 µM amiloride 10 min before and during 1 hr pH 6.0 incubation, without blocker 45.3% ± 3.8%): 31.1% ± 2.5%
- LDH release induced by 1 hr acid incubation of ASIC^+/+ neurons (cortical neurons [2]; pH 6.0, n=8-12): reduced
- baseline LDH release (cortical neurons [2]; pH 7.4 ECF for 1 hr): did not affect
- LDH release, prolonged incubation with amiloride alone (cortical neurons [2]; prolonged incubation (e.g., 5 hr), n=8): increased LDH release
- block of ASIC2a current (ASIC2a): dose-dependent
- peak and sustained increases in [Ca^2+]i (cortical neurons [3]): largely inhibited
- conductance of TRPM7 channels (TRPM7 channels): no effect
- infarct volume [4]: effectively reduce infarct volume
- total brain concentration at which efficacy can be achieved ([5]; icv dose of 1 µl x 500 µM): 12.5 µM
- plasma concentration at which efficacy can be achieved ([5]; iv dose of 50 µl x 1mM): 32.5 µM
- IC50 (Na^+/Ca^2+ ion exchanger): 1100 µM
- effect on acid-induced LDH release after knockout of the ASIC1 gene (ASIC1^-/- neurons): eliminated the effect
- infarct volume [6]: 229.7 ± 41.1 mm^3
- peak amplitude of Ca^2+-mediated current, of control (ASICs): 26% ± 2%
- infarct volume [7]: effectively reduce infarct volume
